Results published in US20150343016A1, “CHEMICAL ENTITIES AND THERAPEUTIC USES THEREOF” (The Regents of the University of Colorado, a body corporate, priority 2010, published 2015).

Columns and labels:
[1] = test system: 1586 Head and Neck Cancer cell line; assay: MTT assay, Bouvardin with ionizing radiation, 1586 (pre-treated); type: cell-based, human; settings: 1586 cells
Experimental: “Combination Index” computation. Combination Indices were calculated using CalcuSyn software (Biosoft), which uses the method of Chou and Talalay. This method first computes drug-induced effect using the Hill Equation: where E is the measured effect; C is the drug concentration; Emax is the full range of drug effect, usually at or near 100%; IC50 is the drug concentration producing the median effect of 50%; and n is the curve shape parameter describing the steepness of the concentration-effect relationship. The Chou and Talalay method then linearizes the Hill Equation by logarithmic transformation as: where fu is the fraction of cells left unaffected after drug exposure, fa is the fraction of cells affected by the exposure, C is the drug concentration used, Cm is the concentration to achieve the median effect, and n is the curve shape parameter. Cm and n are equivalent to IC50 and n, respectively, in the Hill Equation. The values of n (obtained from the slope), nlog(Cm) (obtained from the absolute value of the intercept), and, therefore, Cm are obtained by plotting log(fu−1−1) versus log(C). These numbers are then used to compute the Combination Index (CI) according to the formula: CI=(D)1/(Dx)1+(D)2/(Dx)2 (26). (Dx)1 and (Dx)2 are the doses required to achieve a given effect level for each treatment, i.e. a specified value of Fraction Affected or Fa. (D)1 and (D)2 are the doses of each treatment in a given combination which gives the same Fa.
The growth inhibitory effects of Bouvardin with ionizing radiation (IR) were evaluated using a modified tetrazolium salt (MTT) assay. In the MTT assay, 1,000 to 2,000 viable cells were plated in 100 uL of growth medium in 96-well plates (Corning, Ithaca, N.Y.). Following an overnight incubation, drug was added in varying concentrations and the plates were irradiated on the same day (co-treatment) or 24 hr later (pre-treatment) and incubated for 6 to 7 days. The tetrazolium salt was added at a concentration of 0.4 mg/mL to each well following the 6- to 7-day treatment. The plates were incubated with the salt for 4 hours at 37° C. At 4 hours, the medium was aspirated off, leaving the dark blue formazan product at the bottom of the wells. The reduced MTT product was solubilized by adding […] of 0.2 N HCl in 75% isopropanol, 23% MilliQ water to each well. Thorough mixing was done using a Titertek multichannel pipetman. The absorbency of each well was measured using an automated plate reader (Molecular Devices, Sunnyvale, Calif.). All experiments were done in triplicate.
MTT assays were used to determine the effect of Bouvardin (concentrations in uM) in combination with ionizing radiation (in Gy, X-axis). FIG. 14 depicts CI values for Bouvardin and radiation on 3 cell lines. Combination Index data from 3 different Head and Neck Cancer cell lines are shown. Black dashed lines represent a CI value of 1. CI values below 1 indicate synergy. 1586 and UM-SCC19 were pre-treated whereas HN31 was treated on the same day.

[2] = LD50 in mice; settings: mouse, in vivo
[3] = test system: Det562 cells; assay: CellTiter-Glo Luminescent Cell Viability Assay, Bouvardin with Taxol, Det562; type: cell-based, human; settings: Det562
Experimental: “Combination Index” computation. Combination Indices were calculated using CalcuSyn software (Biosoft), which uses the method of Chou and Talalay. This method first computes drug-induced effect using the Hill Equation: where E is the measured effect; C is the drug concentration; Emax is the full range of drug effect, usually at or near 100%; IC50 is the drug concentration producing the median effect of 50%; and n is the curve shape parameter describing the steepness of the concentration-effect relationship. The Chou and Talalay method then linearizes the Hill Equation by logarithmic transformation as: where fu is the fraction of cells left unaffected after drug exposure, fa is the fraction of cells affected by the exposure, C is the drug concentration used, Cm is the concentration to achieve the median effect, and n is the curve shape parameter. Cm and n are equivalent to IC50 and n, respectively, in the Hill Equation. The values of n (obtained from the slope), nlog(Cm) (obtained from the absolute value of the intercept), and, therefore, Cm are obtained by plotting log(fu−1−1) versus log(C). […]
The growth inhibitory effects of Bouvardin with Taxol were evaluated using CellTiter-Glo® Luminescent Cell Viability Assay (Promega G7570). […] Luminescence of each well was measured using an automated plate reader.

In the case of `COc1ccc(C[C@H]2C(=O)N[C@H](C)C(=O)N(C)[C@@H]3C(=O)N(C)[C@@H](Cc4ccc(O)c(c4)Oc4ccc(cc4)[C@H]3O)C(=O)N[C@@H](C)C(=O)N[C@H](C)C(=O)N2C)cc1` (stereo in doubt) [Bouvardin, bouvardin], the “Combination Index” value ([1]; Bouvardin 0.001 uM + 1 Gy IR) is reported as 1.553, the “Fraction Affected” value ([1]; Bouvardin 0.001 uM + 1 Gy IR) is reported as 0.254 and the “Combination Index” value ([1]; Bouvardin 0.001 uM + 2 Gy IR) is reported as 0.903. The “Fraction Affected” value ([1]; Bouvardin 0.001 uM + 2 Gy IR) was 0.23, the “Combination Index” value ([1]; Bouvardin 0.001 uM + 4 Gy IR) was 1.112 and the “Fraction Affected” value ([1]; Bouvardin 0.001 uM + 4 Gy IR) was 0.503. For the same molecule, the “Combination Index” value ([1]; Bouvardin 0.003 uM + 1 Gy IR) was 1.898, the “Fraction Affected” value ([1]; Bouvardin 0.003 uM + 1 Gy IR) was 0.264 and the “Combination Index” value ([1]; Bouvardin 0.003 uM + 2 Gy IR) was 1.383. The “Fraction Affected” value ([1]; Bouvardin 0.003 uM + 2 Gy IR) was 0.303, the “Combination Index” value ([1]; Bouvardin 0.003 uM + 4 Gy IR) was 0.753 and the “Fraction Affected” value ([1]; Bouvardin 0.003 uM + 4 Gy IR) was 0.51. The “Combination Index” value ([1]; Bouvardin 0.006 uM + 1 Gy IR) was 1.626, the “Fraction Affected” value ([1]; Bouvardin 0.006 uM + 1 Gy IR) was 0.301 and the “Combination Index” value ([1]; Bouvardin 0.006 uM + 2 Gy IR) was 1.285. For the same molecule, the “Fraction Affected” value ([1]; Bouvardin 0.006 uM + 2 Gy IR) was 0.371, the “Combination Index” value ([1]; Bouvardin 0.006 uM + 4 Gy IR) was 0.732 and the “Fraction Affected” value ([1]; Bouvardin 0.006 uM + 4 Gy IR) was 0.634. For the same molecule, the “Combination Index” value ([1]; Bouvardin 0.01 uM + 1 Gy IR) was 0.433, the “Fraction Affected” value ([1]; Bouvardin 0.01 uM + 1 Gy IR) was 0.45 and the “Combination Index” value ([1]; Bouvardin 0.01 uM + 2 Gy IR) was 1.482. The “Fraction Affected” value ([1]; Bouvardin 0.01 uM + 2 Gy IR) was 0.518, the “Combination Index” value ([1]; Bouvardin 0.01 uM + 4 Gy IR) was 1.348 and the “Fraction Affected” value ([1]; Bouvardin 0.01 uM + 4 Gy IR) was 0.604. The “Combination Index” value ([1]; Bouvardin 0.03 uM + 1 Gy IR) was 1.211, the “Fraction Affected” value ([1]; Bouvardin 0.03 uM + 1 Gy IR) was 0.537 and the “Combination Index” value ([1]; Bouvardin 0.03 uM + 2 Gy IR) was 0.841. For the same molecule, the “Fraction Affected” value ([1]; Bouvardin 0.03 uM + 2 Gy IR) was 0.628, the “Combination Index” value ([1]; Bouvardin 0.03 uM + 4 Gy IR) was 1.284 and the “Fraction Affected” value ([1]; Bouvardin 0.03 uM + 4 Gy IR) was 0.624. For the same molecule, the “Combination Index” value ([1]; Bouvardin 0.06 uM + 1 Gy IR) was 0.898, the “Fraction Affected” value ([1]; Bouvardin 0.06 uM + 1 Gy IR) was 0.584 and the “Combination Index” value ([1]; Bouvardin 0.06 uM + 2 Gy IR) was 0.962. The “Fraction Affected” value ([1]; Bouvardin 0.06 uM + 2 Gy IR) was 0.677, the “Combination Index” value ([1]; Bouvardin 0.06 uM + 4 Gy IR) was 1.284 and the “Fraction Affected” value ([1]; Bouvardin 0.06 uM + 4 Gy IR) was 0.813. For the same molecule, the “Combination Index” value ([1]; Bouvardin 0.1 uM + 1 Gy IR) was 1.815, the “Fraction Affected” value ([1]; Bouvardin 0.1 uM + 1 Gy IR) was 0.607 and the “Combination Index” value ([1]; Bouvardin 0.1 uM + 2 Gy IR) was 3.214. For the same molecule, the “Fraction Affected” value ([1]; Bouvardin 0.1 uM + 2 Gy IR) was 0.68, the “Combination Index” value ([1]; Bouvardin 0.1 uM + 4 Gy IR) was 2.639 and the “Fraction Affected” value ([1]; Bouvardin 0.1 uM + 4 Gy IR) was 0.712. The “Combination Index” value ([1]; Bouvardin 0.3 uM + 1 Gy IR) was 2.656, the “Fraction Affected” value ([1]; Bouvardin 0.3 uM + 1 Gy IR) was 0.682 and the “Combination Index” value ([1]; Bouvardin 0.3 uM + 2 Gy IR) was 2.382. The “Fraction Affected” value ([1]; Bouvardin 0.3 uM + 2 Gy IR) was 0.731, the “Combination Index” value ([1]; Bouvardin 0.3 uM + 4 Gy IR) was 3.756 and the “Fraction Affected” value ([1]; Bouvardin 0.3 uM + 4 Gy IR) was 0.708. The “Combination Index” value ([1]; Bouvardin 0.6 uM + 1 Gy IR) was 4.194, the “Fraction Affected” value ([1]; Bouvardin 0.6 uM + 1 Gy IR) was 0.688 and the “Combination Index” value ([1]; Bouvardin 0.6 uM + 2 Gy IR) was 4.765. The “Fraction Affected” value ([1]; Bouvardin 0.6 uM + 2 Gy IR) was 0.743, the “Combination Index” value ([1]; Bouvardin 0.6 uM + 4 Gy IR) was 4.11 and the “Fraction Affected” value ([1]; Bouvardin 0.6 uM + 4 Gy IR) was 0.745. The “Combination Index” value ([1]; Bouvardin 1 uM + 1 Gy IR) was 1.553, the “Fraction Affected” value ([1]; Bouvardin 1 uM + 1 Gy IR) was 0.254 and the “Combination Index” value ([1]; Bouvardin 1 uM + 2 Gy IR) was 0.903. The “Fraction Affected” value ([1]; Bouvardin 1 uM + 2 Gy IR) was 0.23, the “Combination Index” value ([1]; Bouvardin 1 uM + 4 Gy IR) was 1.112 and the “Fraction Affected” value ([1]; Bouvardin 1 uM + 4 Gy IR) was 0.503. For the same molecule, the LD50 [2] was 12.4 mg/kg and the “interaction of Bouvardin with Taxol” value [3] was “synergy with Taxol over a wide range of concentrations”.
